Data from US20250346571A1, “BICYCLIC DERIVATIVE PARP INHIBITOR AND USE THEREOF” (XIZANG HAISCO PHARMACEUTICAL CO., LTD., priority 2022, published 2025).
Where two headings read alike, the source gives them in different places.

How the values were obtained:
PARP-1 enzyme = PARP-1 enzyme (Homo sapiens (Human), UniProt P09874); assay: PARP-1 enzyme activity test (chemical fluorescence detection kit, BPS Bioscience); assay type: biochemical
Procedure: PARP-1 chemical fluorescence detection kit was purchased from BPS Bioscience. The histone solution in the kit was diluted 5× with 1×PBS, and 25 μL of the diluted histone solution was added to a microwell plate and incubated overnight at 4° C. After the incubation, the plate was washed three times with PBST (0.05% Tween-20). 100 μL of the blocking solution was added to the microwell plate and incubated at 25° C. for 90 minutes. After the incubation was completed, the plate was washed three times with PBST. 2.5 μL of compounds at different concentrations diluted in test buffer and 12.5 μL of substrate mixed solution (1.25 μL 10×PARP test buffer; 1.25 μL 10×PARP test mixed solution; 2.5 μL Activated DNA, 7.5 μL double-distilled water) were added to the microwell plate. The PARP-1 enzyme was diluted to 2 ng/μL, […] was added to the microwell plate, and the reaction system was incubated at 25° C. for 60 minutes.
After the incubation was completed, the plate was washed three times with PBST. Streptavidin-HRP was diluted 50× with a blocking solution, and 25 μL of the diluent was added to the microwell plate and incubated at 25° C. for 30 minutes. After the incubation, the plate was washed three times with PBST. ELISA ECL substrate A and substrate B were uniformly mixed at a ratio of 1:1 (v/v), 50 μL of the mixture was added to the microwell plate, and the chemiluminescence value was read.
The inhibition rate was calculated according to formula 1, where RLUsample was the readout of the compound well, RLUmax was the readout of the solvent control well, and RLUmin was the readout of the control well without the PARP-1 enzyme. Curve fitting was performed by four parameters (log(inhibitor) vs. response—Variable slope) using GraphPad Prism software, and the ICso value was calculated.
Inhibition %=(1−(RLUsample−RLUmin)/(RLUmax−RLUmin))×100% (formula 1)

MDA-MB-436 cells = assay: MDA-MB-436 cell activity test (CellTiter-Glo, 7 days); assay type: cell-based; details: for IC50: 7 days incubation; for inhibition at 10 µM: read-out: Max inh. % 10 μM
Procedure: Breast tumor cells MDA-MB-436 were purchased from ATCC, the culture medium was Leibovitz's L-15+10% FBS, and the cells were cultured in a CO2-free incubator at 37° C. On day 1, the cells in the exponential growth phase were collected, and the cell suspension was adjusted to 4000 cells/135 μL with the culture medium. 135 μL of the cell suspension was added to each well of a 96-well cell culture plate and incubated overnight. On day 2, compounds at different concentrations were added, and the plate was placed in the incubator and incubated for 7 days. After the incubation was completed, according to operation instructions for a CellTiter-Glo kit (Promega, G7573), 75 μL of CTG solution, which was already pre-melted and equilibrated to room temperature, was added to each well, and the mixture was uniformly mixed for 2 min using a microplate shaker. The plate was placed at room temperature for 10 min, and then […] were measured using an Envision2104 plate reader (PerkinElmer). The inhibition rate was calculated using formula (1), where RLUcompound was the readout of the drug treated group, RLUcontrol was the average value of the vehicle control group, and RLUblank was the average value of the cell-free well. The IC50 value was calculated using GraphPad Prism software

[1] = Pharmacokinetic test in mice; assay type: in vivo, Balb/c mice; details: for pharmacokinetic characteristics in mice: conclusion in words; for Kp at 24 h / AUC(0-t) / clearance / Vd / bioavailability: male, Balb/c, mouse, mice; for Kp at 24 h: brain/plasma, 24 h after administration, read-out: Brain/Plasma Ratio (24 h); for AUC(0-t) / clearance / Vd / bioavailability: plasma; for Vd: read-out: Vdss
Procedure: 4.1 Experimental animal: male Balb/c mice, 20-25 g, 12 mice/compound, purchased from Chengdu Ddossy Experimental Animals Co., Ltd.
4.2 Experimental design: on the day of the test, 60 Balb/c mice were randomly grouped according to their body weights. The animals were fasted with water available for 12 to 14 h one day before the administration and were fed 4 h after the administration.
(§1) Before and after the administration, 0.06 mL ofblood was taken from the orbit of the animals under isoflurane anesthesia and placed in an EDTAK2 centrifuge tube. The blood was centrifuged at 5000 rpm and 4° C. for 10 min to collect plasma. The blood collection time points for the intravenous administration group and intragastric administration group were 0, 5 min, 15 min, 30 min, 1 h, 2 h, 4 h, 6 h, 8 h, and 24 h. The brain tissues were collected at 30 min, 2 h and 24 h after administration of compounds 12, 15 and 18, respectively. The brain tissues were collected 24 hours after administration of compounds 2 and 5, rinsed with cold physiological saline to remove the residual blood on the surface, drained out and then homogenized. Before analysis and detection, all samples were stored at −80° C. The samples were analyzed quantitatively by LC-MS/MS.

[2] = Pharmacokinetic test in rats; assay type: in vivo, SD rats; details: for pharmacokinetic characteristics in rats: conclusion in words; for Kp at 24 h / AUC(0-t) / clearance / Vd / bioavailability: male, SD, rat, rats; for Kp at 24 h: brain/plasma, intravenous, 2.5 mg/kg, 24 h after administration, read-out: Brain/Plasma Ratio (24 h); for AUC(0-t) / clearance / Vd / bioavailability: plasma; for Vd: read-out: Vdss
Procedure: 3.1 Experimental animal: male SD rats, about 220 g, 6-8 weeks old, 6 rats/compound, purchased from Chengdu Ddossy Experimental Animals Co., Ltd.
3.2 Experimental design: on the day of the experiment, 30 SD rats were randomly grouped according to their body weights. The animals were fasted with water available for 12 to 14 h one day before the administration and were fed 4 h after the administration.
as §1, with “administration, 0.15 ml of blood” for “administration, 0.06 mL ofblood”, “8 h” for “8 h,”, “collected” for “collected at 30 min, 2 h and 24 h after administration of compounds 12, 15 and 18, respectively. The brain tissues were collected”, “after administration,” for “after administration of compounds 2 and 5,”

[3] = Pharmacokinetic test in monkeys; assay type: in vivo, cynomolgus monkeys
Procedure: 6.1 Experimental animal: male cynomolgus monkeys, 3-5 kg, 3-6 years old, 4 monkeys/compound, purchased from Suzhou Xishan Biotechnology Inc.
6.2 Test method: On the day of the experiment, 8 monkeys were randomly grouped according to their body weights. The animals were fasted with water available for 14 to 18 h one day before the administration, and were fed 4 h after the administration.
Before and after the administration, 1.0 mL of blood was taken from the limb veins and placed in an EDTAK2 centrifuge tube. The blood was centrifuged at 5000 rpm and 4° C. for 10 min to collect plasma. The blood collection time points for the intravenous administration group were 0, 5 min, 15 min, 30 min, 1 h, 2 h, 4 h, 6 h, 8 h, 10 h, 12 h, 24 h and 48 h. Before analysis and detection, all samples were stored at −80° C. The samples were analyzed quantitatively by LC-MS/MS.

[4] = grades, read-out: PARP-1 enzyme activity IC50
[5] = Homo sapiens, MDA-MB-436, 168 h
[6] = Homo sapiens, 10 μM, MDA-MB-436 cells
[7] = male, cynomolgus monkey, iv, monkeys, i.v. (1 mg/kg), plasma

Chain of PARP-1 enzyme (P09874 whole entry): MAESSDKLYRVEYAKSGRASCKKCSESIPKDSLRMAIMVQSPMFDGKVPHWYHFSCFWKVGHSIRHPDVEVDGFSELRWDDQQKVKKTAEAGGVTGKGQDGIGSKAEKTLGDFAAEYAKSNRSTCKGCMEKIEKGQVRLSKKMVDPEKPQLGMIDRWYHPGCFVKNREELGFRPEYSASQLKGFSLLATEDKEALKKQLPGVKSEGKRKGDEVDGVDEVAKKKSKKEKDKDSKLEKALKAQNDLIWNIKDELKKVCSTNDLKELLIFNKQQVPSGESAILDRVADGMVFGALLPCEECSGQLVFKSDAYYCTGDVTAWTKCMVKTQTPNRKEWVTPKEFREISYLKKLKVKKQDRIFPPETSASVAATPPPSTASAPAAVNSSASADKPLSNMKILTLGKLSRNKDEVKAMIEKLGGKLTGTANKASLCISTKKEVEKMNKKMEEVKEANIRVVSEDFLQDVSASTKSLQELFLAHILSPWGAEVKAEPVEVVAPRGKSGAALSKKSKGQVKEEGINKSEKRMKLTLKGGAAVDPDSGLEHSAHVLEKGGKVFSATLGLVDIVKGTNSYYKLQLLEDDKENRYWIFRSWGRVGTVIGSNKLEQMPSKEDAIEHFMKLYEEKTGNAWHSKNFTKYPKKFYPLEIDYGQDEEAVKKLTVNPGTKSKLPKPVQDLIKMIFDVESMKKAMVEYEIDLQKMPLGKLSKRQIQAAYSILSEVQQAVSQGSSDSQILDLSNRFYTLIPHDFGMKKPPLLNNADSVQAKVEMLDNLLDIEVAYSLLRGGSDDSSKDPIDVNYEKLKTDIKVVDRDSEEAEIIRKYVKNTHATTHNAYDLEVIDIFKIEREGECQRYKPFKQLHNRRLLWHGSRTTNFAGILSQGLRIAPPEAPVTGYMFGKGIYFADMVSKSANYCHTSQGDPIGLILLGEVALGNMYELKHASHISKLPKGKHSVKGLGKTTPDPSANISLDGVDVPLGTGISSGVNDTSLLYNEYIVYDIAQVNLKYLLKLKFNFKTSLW

Compound	IC50 (PARP-1 enzyme; [4])	IC50 (MDA-MB-436 cells; [5])	pharmacokinetic characteristics in mice [1]	AUC(0-t) ([1]; iv, i.v. 2.5 mg/kg)	clearance ([1]; iv, i.v. 2.5 mg/kg)	Vd ([1]; iv, i.v. 2.5 mg/kg)	bioavailability ([1]; po, i.g. 10 mg/kg)	AUC(0-t) ([1]; po, i.g. 10 mg/kg)	pharmacokinetic characteristics in rats [2]	AUC(0-t) ([2]; iv, i.v. 2.5 mg/kg)	clearance ([2]; iv, i.v. 2.5 mg/kg)	Vd ([2]; iv, i.v. 2.5 mg/kg)	bioavailability ([2]; po, i.g. 10 mg/kg)	AUC(0-t) ([2]; po, i.g. 10 mg/kg)	inhibition at 10 µM (MDA-MB-436 cells; [6])	other results
1-(difluoromethyl)-N-(5-(4-((2-(difluoroethyl(-5-fluoro-3-oxo-3,4-dihydroquinoxalin-6-yl)methyl)piperazin-1-yl)-6-fluoropyridin-2-yl)-1H-pyrazole-4-carboxamide [Compound 17]	< 5 nM															Max inh. % 10 μM (MDA-MB-436 cells; 10 μM, MDA-MB-436 cells): 72.33%; IC50 (MDA-MB-436 cells): 19.4 nM
Cc1nc2ccc(CN3CCN(c4ccc(C(=O)Nc5cnn(C)c5)nc4F)CC3)c(F)c2[nH]c1=O [Compound 2, 6-fluoro-5-(4-((5-fluoro-2-methyl-3-oxo-3,4-dihydroquinoxalin-6-yl)methyl)piperazin-1-yl)-N-(1-methyl-1H-pyrazol-4-yl)picolinamide]	< 5 nM	3.5 nM	good pharmacokinetic characteristics	1870 ± 154 ng·h/mL	21.6 ± 1.3 mL/min/kg	2.09 ± 0.52 L/kg	97.4%	7270 ± 793 ng·h/mL							86%	IC50 (PARP-1 enzyme; read-out: IC50 value on PARP-1): 0.79 nM; Kp at 24 h [1]: 5.23
Cc1nc2ccc(CN3CCN(c4ccc(C(=O)N[C@@H]5C[C@@H]5F)nc4F)CC3)c(F)c2[nH]c1=O [Compound 4, 6-fluoro-5-(4-((5-fluoro-2-methyl-3-oxo-3,4-dihydroquinoxalin-6-yl)methyl)piperazin-1-yl)-N-((1R,2S)-2-fluorocyclopropyl)picolinamide]	< 5 nM	32.8 nM							good pharmacokinetic characteristics	7390 ± 663 ng·h/mL	5.36 ± 0.068 mL/min/kg	1.13 ± 0.071 L/kg	≥ 98%	33400 ± 2670 ng·h/mL	80.1%	Kp at 24 h [2]: 0.315
Cc1nc2ccc(CN3CCN(c4ccc(C(=O)N[C@H]5C[C@H]5F)nc4F)CC3)c(F)c2[nH]c1=O [Compound 5, 6-fluoro-5-(4-((5-fluoro-2-methyl-3-oxo-3,4-dihydroquinoxalin-6-yl)methyl)piperazin-1-yl)-N-((1S,2R)-2-fluorocyclopropyl)picolinamide]	< 5 nM	28 nM	good pharmacokinetic characteristics	2750 ± 212 ng·h/mL	15.2 ± 1.1 mL/min/kg	2.85 ± 0.23 L/kg	≥ 98%	12700 ± 817 ng·h/mL							79.8%	Kp at 24 h [1]: 0.911

Continued, in another order:

IC50 (PARP-1 enzyme; [4])	IC50 (MDA-MB-436 cells; [5])	pharmacokinetic characteristics in mice [1]	AUC(0-t) ([1]; iv, i.v. 2.5 mg/kg)	clearance ([1]; iv, i.v. 2.5 mg/kg)	Vd ([1]; iv, i.v. 2.5 mg/kg)	bioavailability ([1]; po, i.g. 10 mg/kg)	AUC(0-t) ([1]; po, i.g. 10 mg/kg)	pharmacokinetic characteristics in rats [2]	AUC(0-t) ([2]; iv, i.v. 2.5 mg/kg)	clearance ([2]; iv, i.v. 2.5 mg/kg)	Vd ([2]; iv, i.v. 2.5 mg/kg)	bioavailability ([2]; po, i.g. 10 mg/kg)	AUC(0-t) ([2]; po, i.g. 10 mg/kg)	Compound	inhibition at 10 µM (MDA-MB-436 cells; [6])	other results
	1.5 nM													Cc1nc2ccc(CN3CC=C(c4ccc(C(=O)Nc5cnn(C)c5)nc4F)CC3)c(F)c2[nH]c1=O [Compound 9, 2-fluoro-1′-((5-fluoro-2-methyl-3-oxo-3,4-dihydroquinoxalin-6-yl)methyl)-N-(1-methyl-1H-pyrazol-4-yl)-1′,2′,3′,6′-tetrahydro-[3,4′-bipyridine]-6-carboxamide]	84.4%	
< 5 nM	24.3 nM							good pharmacokinetic characteristics	48700 ± 4800 ng·h/mL	0.859 ± 0.09 mL/min/kg	0.148 ± 0.01 L/kg	70.9 ± 3.4%	138000 ± 6650 ng·h/mL	Cn1cc(C(=O)Nc2ccc(N3CCN(Cc4ccc5nc(C(F)F)c(=O)[nH]c5c4F)CC3)c(F)n2)cn1 [Compound 14, N-(5-(4-((2-(difluoromethyl)-5-fluoro-3-oxo-3,4-dihydroquinoxalin-6-yl)methyl)piperazin-1-yl)-6-fluoropyridin-2-yl)-1-methyl-1H-pyrazole-4-carboxamide]	73.2%	pharmacokinetic characteristics in monkeys ([3]; conclusion in words): good pharmacokinetic characteristics; AUC(0-t) [3, 7]: 47100 ± 6260 ng·h/mL; clearance [3, 7]: 0.348 ± 0.057 mL/min/kg; Vd ([3]; male, cynomolgus monkey, iv, monkeys, i.v. (1 mg/kg), plasma, read-out: Vdss): 0.151 ± 0.022 L/kg; bioavailability ([3]; male, cynomolgus monkey, plasma, po, monkeys, i.g. (3 mg/kg)): 56.8 ± 4.9%; AUC(0-t) ([3]; male, cynomolgus monkey, po, monkeys, i.g. (3 mg/kg), plasma): 80100 ± 6960 ng·h/mL
	6.8 nM	good pharmacokinetic characteristics	16300 ± 1740 ng·h/mL	2.57 ± 0.29 mL/min/kg	0.342 ± 0.04 L/kg	≥ 98%	67200 ng·h/mL	good pharmacokinetic characteristics	25800 ± 2870 ng·h/mL	1.63 ± 0.18 mL/min/kg	0.192 ± 0.022 L/kg	87.2 ± 14%	89800 ± 14000 ng·h/mL	Cn1cc(NC(=O)c2ccc(N3CCN(Cc4ccc5nc(C(F)F)c(=O)[nH]c5c4F)CC3)c(F)n2)cn1 [Compound 15]	74.2%	Kp at 24 h [2]: 0.916
< 5 nM		good pharmacokinetic characteristics	8150 ± 811 ng·h/mL	5.14 ± 0.53 mL/min/kg	0.582 ± 0.029 L/kg	≥ 98%	32300 ng·h/mL	good pharmacokinetic characteristics	22000 ± 838 ng·h/mL	1.9 ± 0.071 mL/min/kg	0.294 ± 0.011 L/kg	≥ 98%	87600 ± 11700 ng·h/mL	Cn1cc(C(=O)Nc2ccc(N3CCN(Cc4ccc5nc(C(F)F)c(=O)[nH]c5c4F)CC3)c(F)n2)c(F)n1 [Compound 18, N-(5-(4-((2-(difluoromethyl)-5-fluoro-3-oxo-3,4-dihydroquinoxalin-6-yl)methyl)piperazin-1-yl)-6-fluoropyridin-2-yl)-3-fluoro-1-methyl-1H-pyrazole-4-carboxamide]		
